Results published in patent US20240299394A1, “TARGETED TREATMENT FOR SKIN FRAGILITY DISEASES” (University of Washington, priority 2023, published 2024).

Tests used:
[1] = B-RAF inhibitor monotherapy for cancer (Carlos G, et al. 2015); cited from earlier work
ERK = experiment: Western blotting of pERK in NHEK lysates; format: cell-based, human; conditions: Dab 1 μM or Vem 10 μM alone, 24 hours in E-medium, vs DMSO
Procedure: NHEKs were seeded at a density of 1×10^6 cells per well of 6-well cell culture dishes in M154. Upon reaching confluence, M154 was replaced with E-medium containing vehicle control (DMSO) or inhibitors at the following concentrations: Dabrafenib (1 μM), vemurafenib (10 μM), trametinib (1 μM). After 24 hours, whole-cell lysates were generated by washing cells once in phosphate-buffered saline (PBS) followed by lysis in urea sample buffer [8 M Urea, 60 mM Tris, 1% SDS, 10% glycerol, 5% β-mercaptoethanol, 0.0005% pyronin-Y, pH 6.8] for 10 min. Lysates were homogenized using a microtip probe sonicator (Fisher Scientific).
Whole-cell lysates were loaded onto NuPAGE 12% Bis-Tris Gels (Thermo-Fisher Cat. #NP0343BOX) and separated by electrophoresis using NuPAGE MES SDS Running Buffer (Thermo-Fisher Cat. #NP0002). Proteins were transferred onto Immobilon-FL membrane (Millipore of Burlington, MA, Cat. #IPFL85R) in transfer buffer (25 mM Tris, 192 mM glycine, 20% (v/v) methanol) at 50 volts (V) for 60 minutes. Membranes were blocked in Intercept tris-buffered saline (TBS) blocking buffer (LI-COR) for 60 minutes at room temperature. Membranes were probed overnight at 4° C. with the primary antibodies diluted in Intercept TBS blocking buffer (LI-COR). […]

NHEK monolayers [2] = experiment: Monolayer mechanical dissociation assay, B-RAF inhibitor model of Grover disease; format: cell-based, human; conditions: Dabrafenib 1 μM or vemurafenib 10 μM alone, 24 h
Procedure: Dispase-based mechanical dissociation assays were carried out as described (70). Keratinocytes were plated at a density of 1×10^6 cells per well of 6-well cell culture dishes. Upon reaching confluence, the cells were switched into E-medium. Vehicle control (DMSO) or chemical inhibitors were added at the following concentrations: Dabrafenib (1 μM), vemurafenib (10 μM) trametinib (1 μM), U0126 (10 μM), or PD98059 (20 μM). After 24 h, monolayers were washed with PBS and then incubated with 500 μL dispase (5 U/ml) in Hank's balanced salt solution (Stemcell Technologies of Vancouver, Canada, Cat. #07913) for 30 minutes at 37° C. Next, 4.5 mL PBS was added to the wells and all liquid plus released monolayers were transferred into 15 mL conical tubes, which were placed together in a rack and inverted 1-10 times to induce mechanical stress. Monolayer fragments were transferred back into 6-well cell culture plates and imaged with a 12-megapixel digital camera. Fragments were counted in Fiji.

[3] = system: organotypic epidermis of NHEKs; experiment: Organotypic epidermis treated with B-RAF inhibitors (H&E, immunostaining); format: cell-based, human; conditions: Dab or Vem alone, 48 hours
Procedure: Inhibitors were used at the following concentrations: Dabrafenib (1 μM), vemurafenib (10 μM), trametinib (1 μM).
Paraffin-embedded formalin-fixed tissue cross-sections on glass slides were incubated at 65° C. for 2 hours. Sections were prepared for staining by immersion in 3 baths of xylenes (Fisher) for 5 minutes each, followed by 3 baths of 95% ethanol for 5 minutes each, then 70% ethanol for 5 minutes, and finally 3 baths of PBS for 5 minutes each.

NHEK monolayers [4] = experiment: Monolayer mechanical dissociation assay, SERCA2 inhibition with thapsigargin; format: cell-based, human; conditions: with 1 μM TG, 24 hours; 1 μM Tram, 10 μM U0126, 20 μM PD98059, 1 μM dabrafenib
Procedure: Dispase-based mechanical dissociation assays were carried out as described (Simpson C L, et al. Am J Pathol. 2010; 177(6): p. 2921-37). Keratinocytes were plated at a density of 1×10^6 cells per well of 6-well cell culture dishes. Upon reaching confluence, the calcium concentration of the medium was adjusted to 1.3 mM. Vehicle control (DMSO) or chemical inhibitors were added at the following concentrations: […] After 24 to 72 hours, monolayers were washed with PBS and then incubated with 500 μL dispase (5 U/ml) in Hank's balanced salt solution (Stemcell Technologies of Vancouver, CA, Cat. #07913) for 30 minutes at 37° C. Next, 4.5 ml PBS was added to the wells and all liquid plus released monolayers were transferred into 15 mL conical tubes, which were placed together in a rack and inverted 5-10 times to induce mechanical stress. Monolayer fragments were transferred back into 6-well cell culture plates and imaged with a 12-megapixel digital camera. Fragments were counted in Fiji.

CC(C)(C)c1nc(-c2cccc(NS(=O)(=O)c3c(F)cccc3F)c2F)c(-c2ccnc(N)n2)s1 [dabrafenib]
patients in whom GD was seen [1]: 42.9% | pERK by Western blotting (ERK): sufficient to increase the active phosphorylated form of ERK (pERK) | number of fragments upon mechanical stress (NHEK monolayers [2]): an increase in the number of fragments | number of fragments upon mechanical stress (NHEK monolayers [2]; listed as Dab): readily fragmented | localization of plakoglobin to cell-cell junctions [3]: reduced localization of plakoglobin to cell-cell junctions | integrity of epithelial sheets despite SERCA2 inhibition (NHEK monolayers [4]): did not promote intercellular adhesion, but rather exacerbated the effect of TG
